Source: paper PMC8436411 (ACS Medicinal Chemistry Letters, 2021)
In brackets after ≈: the same amount, converted by molar mass. Several values for one entry are separate records, joined by “and”; a condition that tells them apart may be missing. Equal entries are not always repeated. Where two headings read alike, the source gives them in different places.

How the values were obtained:
S. aureus DNA gyrase = target: T1, S. aureus DNA gyrase (Staphylococcus aureus, UniProt P20831); test: DNA gyrase supercoiling inhibition assay (S. aureus); format: biochemical; details: mean of two independent measurements ± SD
T1 construct: purchased Inspiralis (Norwich, UK)
T1 sequence (P20831 whole entry, looked up): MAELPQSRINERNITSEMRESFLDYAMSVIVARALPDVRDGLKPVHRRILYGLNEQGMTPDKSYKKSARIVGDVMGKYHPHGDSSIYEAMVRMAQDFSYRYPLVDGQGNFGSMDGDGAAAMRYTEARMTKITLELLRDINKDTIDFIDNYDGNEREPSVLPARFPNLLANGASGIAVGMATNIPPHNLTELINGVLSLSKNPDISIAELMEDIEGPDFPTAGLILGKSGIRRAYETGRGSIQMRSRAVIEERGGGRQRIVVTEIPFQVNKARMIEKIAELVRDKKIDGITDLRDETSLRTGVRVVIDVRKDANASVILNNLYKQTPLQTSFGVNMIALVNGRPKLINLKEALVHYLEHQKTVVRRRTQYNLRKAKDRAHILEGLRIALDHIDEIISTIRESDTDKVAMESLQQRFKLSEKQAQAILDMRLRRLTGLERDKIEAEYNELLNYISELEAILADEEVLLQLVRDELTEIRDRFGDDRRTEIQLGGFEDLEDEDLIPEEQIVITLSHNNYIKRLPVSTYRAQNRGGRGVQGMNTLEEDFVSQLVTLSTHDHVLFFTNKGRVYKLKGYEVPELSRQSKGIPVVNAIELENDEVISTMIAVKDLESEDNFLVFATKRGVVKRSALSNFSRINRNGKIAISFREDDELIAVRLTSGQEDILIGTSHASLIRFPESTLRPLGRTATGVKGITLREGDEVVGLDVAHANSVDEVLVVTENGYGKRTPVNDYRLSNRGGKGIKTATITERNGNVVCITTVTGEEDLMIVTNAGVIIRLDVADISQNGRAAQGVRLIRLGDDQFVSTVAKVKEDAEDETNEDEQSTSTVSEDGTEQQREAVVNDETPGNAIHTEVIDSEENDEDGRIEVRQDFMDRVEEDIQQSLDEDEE
Experimental: We synthesized and biologically evaluated ten new compounds. We determined their inhibitory activity, expressed as IC50 values, on both Gram-positive S. aureus and Gram-negative E. coli bacterial enzymes (DNA gyrase and topo IV), respectively. The in vitro antibacterial activity, expressed as minimum inhibitory concentration (MIC), was determined against broad spectrum of bacteria, including Gram-positive (Staphylococcus aureus, methicillin-resistant Staphylococcus aureus, Streptococcus agalactiae, and Enterococcus faecalis) and Gram-negative strains (Escherichia coli, Salmonella alachua, Pseudomonas aeruginosa, and Klebsiella pneumoniae), enriched with various MRSA strains resistant to various antibiotics as well as E. coli strains with increased membrane permeability and lack of efflux pump, as well. Furthermore, the selectivity of compounds for bacterial enzyme compared to the orthologous human topoisomerase IIα was also considered. The in vitro safety profile was determined by cytotoxicity assessment on human umbilical vein endothelial cell lines (HUVEC) and HepG2 liver cancer cell lines.
Determination of DNA gyrase and topoisomerase IV inhibitory activities
To determine the IC50 values of the compounds, a Gyrase Supercoiling High Throughput Plate assay kit and a TopoIV Relaxation High Throughput Plate assay kit, commercially available from Inspiralis (Norwich, UK), were used for S. aureus and E. coli. The assays were performed on black streptavidin-coated 96-well microtiter plates (Thermo Scientific Pierce, Norwich, UK) and the wells were first […]
BSA and 0.05% [v/v] Tween-20). Biotinylated oligonucleotide diluted with the wash buffer was then immobilized in each well and the excess was removed with the wash buffer. 1.5 U of the enzyme S. aureus or E. coli DNA gyrase (topoIV) was incubated together with 0.75 μg of relaxed (supercoiled) pNO1 plasmid as substrate in the presence of 3 μl inhibitor solution in 10% DMSO and 0.008% Tween-20 at 37°C for 30 min in a final reaction volume of 30 μl in the assay buffer (S. aureus DNA gyrase: 40 mM HEPES.KOH (pH 7.6), 10 mM magnesium acetate, 10 mM DTT, 2 mM ATP, 500 mM potassium glutamate and 0.05 mg/ml albumin; E. coli DNA gyrase: 35 mM Tris.HCl (pH 7.5), 24 […]
mg/ml albumin; S. aureus topo IV: 50 mM Tris.HCl (7.5), 5 mM MgCl 2, 5 mM DTT, 1.5 mM ATP, 350 mM potassium glutamate and 0.05 mg/ml albumin; E. coli topo IV: 40 mM HEPES.KOH (pH 7.6), 100 mM potassium glutamate, 10 mM magnesium acetate, 10 mM DTT, 1 mM ATP and 50 μg/ml albumin). The reaction was stopped by adding the TF buffer (50 mM NaOAc (pH 4.7), 50 mM NaCl and 50 mM MgCl2) to allow triplex formation (biotin oligonucleotide plasmid) for another 30 min. Finally, the unbound plasmid was washed off using the TF buffer and the Promega Diamond dye was added to T10 buffer (10 mM Tris-HCl (pH 8.0), 1 mM EDTA) solution. After 15 min the solution […]
Two inhibitor concentrations of 100 and 1 μM were used for pre-screening. The IC 50 values […]
(IC50) was calculated by nonlinear regression-based fitting of the inhibition curves using the log [inhibitor] versus response-variable slope (four parameters) – symmetrical equation, in GraphPad Prism 6.0 software (GraphPad Software, CA, USA). The IC50 value represents the average of two independent measurements.
The minimum inhibitory concentrations (MICs) were determined using the broth micro-dilution method in 96-well plate format according to the Clinical and Laboratory Standards Institute

Human topoisomerase IIα = Human topoisomerase IIα (Homo sapiens, UniProt P11388); test: Human topoisomerase IIα residual activity; format: biochemical; details: residual activity at 10 μM compound; mean ± SD, two independent experiments; read-out: Human topoisomerase IIα (%RA)
Chain of Human topoisomerase IIα (P11388 whole entry): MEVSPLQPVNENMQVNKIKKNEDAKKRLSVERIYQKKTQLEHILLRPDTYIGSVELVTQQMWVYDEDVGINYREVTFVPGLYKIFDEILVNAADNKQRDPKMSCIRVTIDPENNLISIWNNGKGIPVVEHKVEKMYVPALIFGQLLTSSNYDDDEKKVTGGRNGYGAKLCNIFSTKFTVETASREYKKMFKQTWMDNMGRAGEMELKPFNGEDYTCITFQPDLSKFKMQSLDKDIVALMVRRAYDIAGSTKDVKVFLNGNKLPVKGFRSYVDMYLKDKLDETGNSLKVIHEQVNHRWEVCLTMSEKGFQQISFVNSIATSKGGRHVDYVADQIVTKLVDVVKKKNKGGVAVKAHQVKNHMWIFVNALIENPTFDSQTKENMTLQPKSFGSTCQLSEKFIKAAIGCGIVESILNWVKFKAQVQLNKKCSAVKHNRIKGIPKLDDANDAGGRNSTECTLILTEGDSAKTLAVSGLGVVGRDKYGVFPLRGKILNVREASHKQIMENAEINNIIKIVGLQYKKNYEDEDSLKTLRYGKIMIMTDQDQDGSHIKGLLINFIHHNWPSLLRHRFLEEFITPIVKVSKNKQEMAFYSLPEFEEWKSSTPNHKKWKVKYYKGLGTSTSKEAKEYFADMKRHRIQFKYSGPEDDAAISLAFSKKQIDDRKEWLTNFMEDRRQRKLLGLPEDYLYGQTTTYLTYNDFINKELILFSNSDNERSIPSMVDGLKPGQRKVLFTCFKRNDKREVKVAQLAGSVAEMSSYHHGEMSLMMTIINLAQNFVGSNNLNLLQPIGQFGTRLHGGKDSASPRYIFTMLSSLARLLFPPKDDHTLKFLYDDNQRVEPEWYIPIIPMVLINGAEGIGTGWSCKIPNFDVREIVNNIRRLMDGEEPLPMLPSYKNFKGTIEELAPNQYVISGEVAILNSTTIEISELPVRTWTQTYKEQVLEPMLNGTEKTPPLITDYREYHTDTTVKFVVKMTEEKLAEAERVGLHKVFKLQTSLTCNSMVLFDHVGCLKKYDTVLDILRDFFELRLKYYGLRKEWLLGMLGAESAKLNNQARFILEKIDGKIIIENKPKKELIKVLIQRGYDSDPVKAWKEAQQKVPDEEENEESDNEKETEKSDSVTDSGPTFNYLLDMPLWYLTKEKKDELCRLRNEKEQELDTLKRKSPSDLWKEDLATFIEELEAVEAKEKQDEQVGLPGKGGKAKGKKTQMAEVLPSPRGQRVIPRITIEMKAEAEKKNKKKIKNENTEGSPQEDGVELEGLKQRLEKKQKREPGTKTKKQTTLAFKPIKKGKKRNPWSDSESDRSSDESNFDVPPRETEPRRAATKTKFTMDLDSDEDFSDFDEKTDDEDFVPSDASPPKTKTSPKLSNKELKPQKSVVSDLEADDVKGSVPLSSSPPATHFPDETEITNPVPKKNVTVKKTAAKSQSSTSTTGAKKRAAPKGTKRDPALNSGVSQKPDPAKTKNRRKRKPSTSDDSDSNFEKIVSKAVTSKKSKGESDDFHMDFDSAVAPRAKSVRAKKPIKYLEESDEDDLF

E. coli (ATCC 25922) = test: microbe, parasite or virus in culture; details: Escherichia coli, ATCC25922, read-out: MIC E. coli (ATCC 25922)
Experimental: (§1) The in vitro antibacterial activity, expressed as minimum inhibitory concentration (MIC), was determined against broad spectrum of bacteria, including Gram-positive (Staphylococcus aureus, methicillin-resistant Staphylococcus aureus, Streptococcus agalactiae, and Enterococcus faecalis) and Gram-negative strains (Escherichia coli, Salmonella alachua, Pseudomonas aeruginosa, and Klebsiella pneumoniae), enriched with various MRSA strains resistant to various antibiotics as well as E. coli strains with increased membrane permeability and lack of efflux pump, as well. […]
(§2) The minimum inhibitory concentrations (MICs) were determined using the broth micro-dilution method in 96-well plate format according to the Clinical and Laboratory Standards Institute […]
(§3) guidelines8 and European Committee on Antimicrobial Susceptibility Testing recommendations9. The bacterial suspension of the specific bacterial strain equivalent to the 0.5 McFarland turbidity standard was diluted with cation-adapted Mueller Hinton broth with TES (Thermo Fisher Scientific) to obtain a […]
(§4) The compounds dissolved in DMSO and inoculum were mixed together and incubated for 20 h at 35 °C.

E. coli D22 = test: microbe, parasite or virus in culture; details: Escherichia coli
Experimental: as §1, §2, §3, §4

[1] = system: E. coli N43 (CGSC no. 5583); test: microbe, parasite or virus in culture; details: Escherichia coli
Experimental: as §1, §2, §3, §4

[2] = system: Enterococcus faecalis DRK 057 (ATCC 29212); test: microbe, parasite or virus in culture
Experimental: as §1, §2, §3, §4

Klebsiella pneumoniae = test: microbe, parasite or virus in culture
Experimental: as §1, §2, §3, §4

MRSA (QA-11.7) = test: microbe, parasite or virus in culture; details: Staphylococcus aureus, read-out: MIC MRSA (QA-11.7)
Experimental: as §1, §2, §3, §4

MRSA (QA-12.1) = test: microbe, parasite or virus in culture; details: Staphylococcus aureus, read-out: MIC MRSA (QA-12.1)
Experimental: as §1, §2, §3, §4

[3] = system: Pseudomonas aeruginosa RDK 184 (DSM 939); test: microbe, parasite or virus in culture
Experimental: as §1, §2, §3, §4

S. aureus (ATCC 29213) = test: microbe, parasite or virus in culture; details: Staphylococcus aureus, ATCC29213, read-out: MIC S. aureus (ATCC 29213)
Experimental: as §1, §2, §3, §4

[4] = system: Salmonella alachua RDK 030c (QA-1482/04); test: microbe, parasite or virus in culture
Experimental: as §1, §2, §3, §4

[5] = system: Streptococcus agalactiae RDK 047 (QA-990/02); test: microbe, parasite or virus in culture
Experimental: as §1, §2, §3, §4

[6] = read-out: MIC E. coli N43 (CGSC no. 5583)
[7] = read-out: MIC E. coli N43 (CGSC# 5583)
[8] = ATCC29212, read-out: MIC E. faecalis DRK 057 (ATCC 29212)
[9] = ATCC29212, read-out: MIC Enterococcus faecalis DRK 057 (ATCC 29212)
[10] = read-out: MIC Klebsiella pneumoniae
[11] = DSM939, read-out: MIC P. aeruginosa RDK 184 (DSM 939)
[12] = DSM939, read-out: MIC Pseudomonas aeruginosa RDK 184 (DSM 939)
[13] = read-out: MIC S. alachua RDK 030c (QA-1482/04)
[14] = read-out: MIC Salmonella alachua RDK 030c (QA-1482/04)
[15] = read-out: MIC S. agalactiae RDK 047 (QA-990/02)
[16] = read-out: MIC Streptococcus agalactiae RDK 047 (QA-990/02)

Row | Structure (SMILES) | IC50 (S. aureus DNA gyrase) [nM] | remaining activity at 10 µM (Human topoisomerase IIα) [%] | MIC (E. coli (ATCC 25922)) | MIC (E. coli D22; D22, read-out: MIC E. coli D2) [µM] | MIC (E. coli D22; D22, read-out: MIC E. coli D22) [mg/L] | MIC [1, 6] [mg/L] | MIC [1, 7] [µM] | MIC [2, 8] [µM] | MIC [2, 9] [mg/L] | MIC (Klebsiella pneumoniae; read-out: MIC K. pneumoniae) [µM] | MIC (Klebsiella pneumoniae; [10]) [mg/L] | MIC (MRSA (QA-11.7)) | MIC (MRSA (QA-12.1)) | MIC [3, 11] [µM] | MIC [3, 12] [mg/L] | MIC (S. aureus (ATCC 29213)) | MIC [4, 13] [µM] | MIC [4, 14] [mg/L] | MIC [5, 15] [µM] | MIC [5, 16] [mg/L]
1 | COc1ccc2nccc(CCN3CCC(NCc4ccc(Cl)c(F)c4)CC3)c2n1 [Compound 4] | 6 ± 1 | 99.2 ± 0.52 | 4.66 µM and 2 µg/mL | 0.583 | 0.25 | 0.062 | 0.145 | 4.66 | 2 | 74.6 | 32 | 0.072 µM and 0.031 µg/mL | 0.072 µM and 0.031 µg/mL | 149 | 64 | 0.072 µM and 0.031 µg/mL | 18.7 | 8 | 2.33 | 1
2 | COc1ccc2nccc(CCN3CCC(NCc4ccc(Br)c(F)c4)CC3)c2n1 [Compound 5] | 7 | 98.46 ± 0.45 | 2.11 µM and 1 µg/mL | 0.131 | 0.062 | 0.031 | 0.065 | 1.06 | 0.5 | 33.8 | 16 | 0.034 µM and 0.016 µg/mL | 0.065 µM and 0.031 µg/mL | 67.6 | 32 | 0.017 µM and 0.008 µg/mL | 8.45 | 4 | 4.22 | 2
3 | COc1ccc2nccc(CCN3CCC(NCc4cc(F)c(Cl)c(F)c4)CC3)c2n1 [Compound 7] | 14 ± 2 | 99.43 ± 0.57 | 1.12 µM and 0.5 µg/mL | 0.069 | 0.031 | 0.062 | 0.139 | 1.12 | 0.5 | 17.9 | 8 | 0.069 µM and 0.031 µg/mL | 0.069 µM and 0.031 µg/mL | 35.8 | 16 | 0.018 µM and 0.008 µg/mL | 4.47 | 2 | 1.12 | 0.5
4 | COc1ccc2nccc(CCN3CCC(NCc4cc(F)c(Br)cc4F)CC3)c2n1 [Compound 9] | 9 ± 1 | 98.83 ± 0.11 | 2.04 µM and 1 µg/mL | 0.509 | 0.25 | 0.062 | 0.126 | 1.02 | 0.5 | 130 | 64 | 0.033 µM and 0.016 µg/mL | 0.033 µM and 0.016 µg/mL | 260 | 128 | 0.016 µM and 0.008 µg/mL | 32.6 | 16 | 0.509 | 0.25
5 | COc1ccc2nccc(CCN3CCC(NCc4ccc(Br)c(F)c4F)CC3)c2n1 [Compound 10] | 9 | 98.11 ± 0.91 | 8.14 µM and 4 µg/mL | 1.02 | 0.5 | 0.125 | 0.254 | 4.07 | 2 | 130 | 64 | 0.126 µM and 0.062 µg/mL | 0.126 µM and 0.062 µg/mL | > 260 | > 128 | 0.063 µM and 0.031 µg/mL | 32.6 | 16 | 4.07 | 2
6 | COc1ccc2nccc(CCN3CCC(NCc4ccc(I)c(F)c4F)CC3)c2n1 [Compound 11] | 9 ± 1 | 94.9 ± 5.67 | 3.71 µM and 2 µg/mL | 0.23 | 0.125 | 0.031 | 0.058 | 0.929 | 0.5 | 59.4 | 32 | 0.058 µM and 0.031 µg/mL | 0.115 µM and 0.062 µg/mL | 119 | 64 | 0.015 µM and 0.008 µg/mL | 14.9 | 8 | 0.929 | 0.5
7 | COc1ccc2nccc(CCN3CCC(NCc4ccc(Cl)nc4)CC3)c2n1 [Compound 12] | 283 ± 9 | 99.7 ± 1.48 | 77.7 µM and 32 µg/mL | 9.71 | 4 | 8 | 19.4 | 77.7 | 32 | > 311 | > 128 | 2.43 µM and 1 µg/mL | 4.86 µM and 2 µg/mL | > 311 | > 128 | 2.43 µM and 1 µg/mL | > 311 | > 128 | 155 | 64
8 | O=c1ccc2ncc(=O)n3c2n1C[C@H]3CN1CCC(NCc2cc3c(cn2)OCCC3)CC1 [Gepotidacin, gepotidacin, reference compound] | – | – | 2.23 µM and 1 µg/mL | 0.279 | – | 0.016 | 0.036 | – | – | 17.8 | 8 | 0.138 µM and 0.062 µg/mL | 0.279 µM and 0.125 µg/mL | 17.8 | 8 | 0.279 µM (≈ 0.125 µg/mL) | 8.92 | 4 | – | –
